Measured values: PMC5702532 (Bioconjugate chemistry, 2016)
Bridge positions count the residues as written; N and C are the ends. Ends that are not written are not given here.

How the values were obtained:
[1] = tested on: MCF-7, MDA-MB-231, A-549 and PC-3 cells; assay: Confocal fluorescence detection of cell entry in live carcinoma cells; format: cell-based, human; settings: 10 μM in media for 60 min; live cells washed 3×; confocal microscopy, TAMRA filter; breast (MCF-7, MDA-MB-231), lung (A-549), prostate (PC-3)
[2] = target: XPNPEP1, APaseP human recombinant protein (Homo sapiens, UniProt Q9NQW7); assay: Biacore binding affinity assay
XPNPEP1, APaseP human recombinant protein, sequence (Q9NQW7 whole entry): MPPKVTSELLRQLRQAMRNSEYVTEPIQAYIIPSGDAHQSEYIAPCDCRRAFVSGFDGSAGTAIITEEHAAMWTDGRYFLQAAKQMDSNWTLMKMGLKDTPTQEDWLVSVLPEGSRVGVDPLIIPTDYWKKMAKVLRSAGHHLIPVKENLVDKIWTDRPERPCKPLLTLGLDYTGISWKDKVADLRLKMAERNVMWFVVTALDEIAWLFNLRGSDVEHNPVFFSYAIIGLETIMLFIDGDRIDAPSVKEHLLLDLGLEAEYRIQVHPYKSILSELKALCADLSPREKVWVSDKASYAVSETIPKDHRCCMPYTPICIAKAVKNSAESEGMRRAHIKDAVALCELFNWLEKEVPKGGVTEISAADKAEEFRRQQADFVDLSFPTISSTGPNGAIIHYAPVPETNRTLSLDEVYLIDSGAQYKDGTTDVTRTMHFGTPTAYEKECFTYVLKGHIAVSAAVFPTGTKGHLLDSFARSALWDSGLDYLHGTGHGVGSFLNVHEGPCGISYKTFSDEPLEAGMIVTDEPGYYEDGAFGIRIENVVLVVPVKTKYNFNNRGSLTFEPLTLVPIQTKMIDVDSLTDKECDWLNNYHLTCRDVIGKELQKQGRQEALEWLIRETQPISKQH

CPGPEGAGC (disulfide 1-9 (inferred)) was tested, and the “Cell entry (fluorescence detection)” value [1] was “did not enter breast-derived cells”.
In the case of RPPGFSPFR [Bradykinin], the Kd [2] is reported as 15.3 ± 8 µM.
